Source: ChEMBL document CHEMBL1201862, “PubChem BioAssay data set” (2004)
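48-hour exposure; five concentrations; linearly interpolated endpoints. The concentration for 50% growth inhibition is given as GI50.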 Activity calls are given as the source filed them. Cut-off read from the data, not from the text of the source: active = GI50 up to about 1.1 µM and inactive = higher.

Tests used:
Assay in all cases: NCI tumour cell line growth inhibition, 48 h
786-0 = test system: 786-0
A498 = test system: A498
A549 = test system: A549
ACHN = test system: ACHN
CAKI-1 = test system: CAKI-1
CCRF-CEM = test system: CCRF-CEM
COLO 205 = test system: COLO 205
DLD-1 = test system: DLD-1
DMS-114 = test system: DMS-114
DMS-273 = test system: DMS-273
EKVX = test system: EKVX
HCC 2998 = test system: HCC 2998
HCT-116 = test system: HCT-116
HCT-15 = test system: HCT-15
HL-60 = test system: HL-60
HOP-18 = test system: HOP-18
HOP-62 = test system: HOP-62
HOP-92 = test system: HOP-92
HT-29 = test system: HT-29
IGROV-1 = test system: IGROV-1
K562 = test system: K562
KM-20L2 = test system: KM-20L2
KM12 = test system: KM12
LOX IMVI = test system: LOX IMVI
LXFL 529 = test system: LXFL 529
M14 = test system: M14
M19-MEL = test system: M19-MEL
MOLT-4 = test system: MOLT-4
Malme-3M = test system: Malme-3M
NCI-H226 = test system: NCI-H226
NCI-H23 = test system: NCI-H23
NCI-H460 = test system: NCI-H460
NCI-H522 = test system: NCI-H522
OVCAR-3 = test system: OVCAR-3
OVCAR-4 = test system: OVCAR-4
OVCAR-5 = test system: OVCAR-5
OVCAR-8 = test system: OVCAR-8
RPMI-8226 = test system: RPMI-8226
RXF 393 = test system: RXF 393
SF-268 = test system: SF-268
SF-295 = test system: SF-295
SF-539 = test system: SF-539
SK-MEL-28 = test system: SK-MEL-28
SK-MEL-2 = test system: SK-MEL-2
SK-MEL-5 = test system: SK-MEL-5
SK-OV-3 = test system: SK-OV-3
SN12C = test system: SN12C
SNB-19 = test system: SNB-19
SNB-75 = test system: SNB-75
SNB-78 = test system: SNB-78
SR = test system: SR
SW-620 = test system: SW-620
TK-10 = test system: TK-10
U-251 = test system: U-251
UACC-257 = test system: UACC-257
UACC-62 = test system: UACC-62
UO-31 = test system: UO-31
XF498 = test system: XF498

## NS(=O)(=O)c1ccc(NC2=CC(=O)C(=O)c3ccccc32)cc1
786-0
  GI50: > 100 µM (inactive)
A498
  GI50: > 100 µM (inactive)
A549
  GI50: > 100 µM (inactive)
ACHN
  GI50: > 100 µM (inactive)
CAKI-1
  GI50: > 100 µM (inactive)
CCRF-CEM
  GI50: > 100 µM (inactive)
COLO 205
  GI50: > 100 µM (inactive)
DLD-1
  GI50: > 100 µM (inactive)
DMS-114
  GI50: 43.2 µM (inactive)
DMS-273
  GI50: > 100 µM (inactive)
EKVX
  GI50: > 100 µM (inactive)
HCC 2998
  GI50: > 100 µM (inactive)
HCT-116
  GI50: 76.4 µM (inactive)
HCT-15
  GI50: > 100 µM
HL-60
  GI50: > 100 µM (inactive)
HOP-18
  GI50: > 100 µM (inactive)
HOP-62
  GI50: > 100 µM (inactive)
HOP-92
  GI50: > 100 µM (inactive)
HT-29
  GI50: > 100 µM (inactive)
IGROV-1
  GI50: > 100 µM (inactive)
K562
  GI50: > 100 µM (inactive)
KM-20L2
  GI50: > 100 µM (inactive)
KM12
  GI50: > 100 µM (inactive)
LOX IMVI
  GI50: > 100 µM (inactive)
LXFL 529
  GI50: > 100 µM (inactive)
M14
  GI50: > 100 µM (inactive)
M19-MEL
  GI50: > 100 µM (inactive)
MOLT-4
  GI50: 72.1 µM (inactive)
Malme-3M
  GI50: > 100 µM (inactive)
NCI-H226
  GI50: > 100 µM (inactive)
NCI-H23
  GI50: > 100 µM (inactive)
NCI-H460
  GI50: > 100 µM (inactive)
NCI-H522
  GI50: > 100 µM (inactive)
OVCAR-3
  GI50: > 100 µM (inactive)
OVCAR-4
  GI50: > 100 µM (inactive)
OVCAR-5
  GI50: > 100 µM (inactive)
OVCAR-8
  GI50: > 100 µM (inactive)
RPMI-8226
  GI50: > 100 µM (inactive)
RXF 393
  GI50: > 100 µM (inactive)
SF-268
  GI50: > 100 µM (inactive)
SF-295
  GI50: > 100 µM (inactive)
SF-539
  GI50: > 100 µM (inactive)
SK-MEL-28
  GI50: > 100 µM (inactive)
SK-MEL-2
  GI50: > 100 µM (inactive)
SK-MEL-5
  GI50: > 100 µM (inactive)
SK-OV-3
  GI50: > 100 µM (inactive)
SN12C
  GI50: > 100 µM (inactive)
SNB-19
  GI50: > 100 µM (inactive)
SNB-75
  GI50: > 100 µM (inactive)
SNB-78
  GI50: > 100 µM (inactive)
SR
  GI50: > 100 µM (inactive)
SW-620
  GI50: > 100 µM (inactive)
TK-10
  GI50: > 100 µM (inactive)
U-251
  GI50: > 100 µM (inactive)
UACC-257
  GI50: > 100 µM (inactive)
UACC-62
  GI50: > 100 µM (inactive)
UO-31
  GI50: > 100 µM (inactive)

## C[C@H](NS(=O)(=O)c1ccc(NC(=O)c2ccccc2)cc1)C(=O)O
786-0
  GI50: > 100 µM (inactive)
A498
  GI50: > 100 µM (inactive)
A549
  GI50: > 100 µM (inactive)
ACHN
  GI50: > 100 µM (inactive)
CAKI-1
  GI50: > 100 µM (inactive)
CCRF-CEM
  GI50: > 100 µM (inactive)
COLO 205
  GI50: > 100 µM (inactive)
DLD-1
  GI50: > 100 µM (inactive)
DMS-273
  GI50: > 100 µM (inactive)
EKVX
  GI50: > 100 µM (inactive)
HCC 2998
  GI50: > 100 µM (inactive)
HCT-15
  GI50: > 100 µM
HL-60
  GI50: > 100 µM (inactive)
HOP-18
  GI50: > 100 µM (inactive)
HOP-92
  GI50: > 100 µM (inactive)
HT-29
  GI50: > 100 µM (inactive)
IGROV-1
  GI50: > 100 µM (inactive)
K562
  GI50: > 100 µM (inactive)
KM-20L2
  GI50: > 100 µM (inactive)
KM12
  GI50: > 100 µM (inactive)
LOX IMVI
  GI50: > 100 µM (inactive)
LXFL 529
  GI50: > 100 µM (inactive)
M14
  GI50: > 100 µM (inactive)
M19-MEL
  GI50: > 100 µM (inactive)
MOLT-4
  GI50: > 100 µM (inactive)
Malme-3M
  GI50: > 100 µM (inactive)
NCI-H23
  GI50: > 100 µM (inactive)
NCI-H460
  GI50: > 100 µM (inactive)
NCI-H522
  GI50: > 100 µM (inactive)
OVCAR-3
  GI50: > 100 µM (inactive)
OVCAR-4
  GI50: > 100 µM (inactive)
OVCAR-5
  GI50: > 100 µM (inactive)
OVCAR-8
  GI50: > 100 µM (inactive)
RPMI-8226
  GI50: > 100 µM (inactive)
RXF 393
  GI50: > 100 µM (inactive)
SF-268
  GI50: > 100 µM (inactive)
SF-295
  GI50: > 100 µM (inactive)
SF-539
  GI50: > 100 µM (inactive)
SK-MEL-28
  GI50: > 100 µM (inactive)
SK-MEL-2
  GI50: > 100 µM (inactive)
SK-MEL-5
  GI50: > 100 µM (inactive)
SK-OV-3
  GI50: > 100 µM (inactive)
SN12C
  GI50: > 100 µM (inactive)
SNB-19
  GI50: > 100 µM (inactive)
SNB-75
  GI50: > 100 µM (inactive)
SW-620
  GI50: > 100 µM (inactive)
TK-10
  GI50: > 100 µM (inactive)
U-251
  GI50: > 100 µM (inactive)
UACC-257
  GI50: > 100 µM (inactive)
UACC-62
  GI50: > 100 µM (inactive)
UO-31
  GI50: > 100 µM (inactive)
XF498
  GI50: > 100 µM (inactive)
